One test concerns serotonin. As to the kind of experiment: Serum serotonin ELISA after 4-week feeding of mice. The format is in vivo, C57BL/6J mice. Conditions: 4 weeks in drinking water (F4 about 10^7 CFU/ml; ampicillin 1 g/l); control 3537.2 ng/ml. From the text: (§1) Before all animal experiments, animal experimentation was approved and approval number ATG-IACUC-REV-180810 was granted through appropriate procedures by the Institutional Animal Care and Use Committee (IACUC) of AtoGEN, and a guide to ethical animal experiments was followed. 4-week-old C57BL/6J mice were purchased through Central Laboratory Animal (Seoul, Korea), and the experimental groups that were used were a control fed with general feed and drinking water (Ctrl), a gut microbiota dysbiosis experimental group (Amp) fed with general feed and drinking water containing 1 g/l of ampicillin, and an experimental group fed with general feed and drinking water containing about 10^7 CFU/ml of lactic-acid bacteria F4 (F4). Five mice were used for each experimental group. After stabilizing the 4-week-old mice for 1 week, the experiment was conducted for 4 weeks using the experimental groups described above. The entire experiment was independently repeated twice.
(§2) After the 4-week feeding experiment, the mice were anesthetized using ether, and blood was obtained from the heart thereof. […] The serum thus obtained was measured to determine the amounts of dopamine and serotonin in the blood using a dopamine ELISA kit (Abnova, Taiwan) and a serotonin ELISA kit (Abcam, USA).
(In an ELISA, binding on a coated surface is turned into a signal by an enzyme label.)

A further test deals with dopamine. The test can be described thus: Serum dopamine ELISA after 4-week feeding of mice. The format is in vivo, C57BL/6J mice. As to conditions: 4 weeks in drinking water (F4 about 10^7 CFU/ml; ampicillin 1 g/l); control 2.95 ng/ml.
Text: as §1, §2

In test [1] the test system is mouse macrophage cell line RAW264.7. The test can be described thus: IL-10 ELISA of culture solution of RAW264.7 cells with or without LPS. The format is cell-based. Conditions: 1 μg/ml LPS alone (positive control), 24 hr. The method, then: In order to measure the anti-inflammatory effect of F4 lactic-acid bacteria, a cytokine quantification experiment using cells was performed. F4 lactic-acid bacteria as a treatment material were subjected to liquid culture in an MRS broth and were then centrifuged, after which the cells of the strain were recovered and concentrated 10-fold. The concentrated solution thus obtained was treated with lysozyme for 1 hr, lysed through sonication, and then quantified through solid content analysis. […] In order to confirm whether the generation of nitric oxide (NO) as an additional inflammation indicator was inhibited in the LPS-induced group, a predetermined amount of the cell culture supernatant obtained in the cell experiment for measuring cytokines was transferred into 96 wells, and 100 μl of a Griess reagent (modified, SIGMA, USA) was injected thereto, after which reaction was carried out at room temperature for 10 min and absorbance at 540 nm was measured using an ELISA reader. The amount of NO that was produced was calculated by comparing the proportion of NO present in the cell culture solution with the LPS-treated group as a control.

With `CC1(C)S[C@@H]2[C@H](NC(=O)[C@H](N)c3ccccc3)C(=O)N2[C@H]1C(=O)O` [Amp, ampicillin], the serotonin in serum with serotonin amounted to 2365.0 ng/mL. This compound also returned a dopamine in serum in the test on dopamine of 2.09 ng/mL.
lipopolysaccharide [LPS] gave an IL-10 production in test [1] of 166.60 pg/mL.

The record behind these values is patent publication US11318178B2, “Lactobacillus reuteri ATG-F4 strain having function of enhancing dopamine secretion and pharmaceutical composition comprising same for prevention or treatment of psychopathy” (ATOGEN CO., LTD, priority 2018, dated 2022).
